Measurements published in patent publication US9254334B2, “Polyamine derivatives” (CLSN Laboratories, Inc., priority 2009, dated 2016).

Tests used:
[1] = Controlled release of complexed Cav-1 siRNA from crosslinked alginate gel; assay type: physicochemical
Description: siRNA complexed with dioleoyl monoamine is formulated as described in Example 39 containing 50 μg Cav-1 siRNA and 1.4 μg dioleoyl monoamine in a volume of 50 μL. Sodium alginate (Type A) is dissolved in water to give a 2% solution. An alginate solution (100 μL) is added to a single well of a 96-well plate followed by 50 μL of the dioleoyl monoamine/Cav-siRNA solution. After thorough mixing, 50 μL of a 0.68 M CaCl2 solution is added to the previous mixture to crosslink the gel. One hundred μL of water or 0.1 M EDTA (which serves to break down the gel by complexing the Ca^2+ ions) is then added to ensure complete submersion of the gel in aqueous solution. At the prescribed time points, the supernatants are removed (200 μL) and replaced with fresh 200 μL water or 0.1 M EDTA. After 84 hours, all collected samples are assayed for Cav-1 siRNA content using qRT-PCR. The siRNA amounts collected at each time point are summed in order to determine amount released over time. In samples that have the addition of EDTA, 100% of the loaded dioleoyl monoamine formulated siRNA is released after 84 hours.

VEGF transcript = VEGF transcript knockdown in subcutaneous tumors after intratumoral injection of formulated siVEGF; assay type: in vivo, mice; details: VEGF siRNA 5:1 N:P, 0.3 mg/mL, 30 μl intratumoral, 48 h after second injection
Description: (§1) In this example tumors were implanted into the hind flanks of […] by injecting 5×10^5 squamous cell carcinoma cells. Tumors were allowed to grow until they reached a size of […]. Tumors were then injected with a commercially available siRNA targeting VEGF that was formulated with dioleoyl monoamine at a 5:1 N:P ratio or with a similarly formulated non-silencing control siRNA. The final concentration of siRNA was 0.3 mg/mL. A total of 30 μl of the formulated siRNA solution was injected into tumors and injections were repeated every 3-4 days for a total of 6 injections. The tumors from some animals were harvested 48 hours after the second formulated siRNA injection for transcript analysis.

[2] = test system: Caveolin-1 (Cav-1) transcript; test: Caveolin-1 transcript knockdown in lung and liver after single iv injection of formulated siRNA (qRTPCR); assay type: in vivo, mice; details: 100 μg siRNA iv, 10:1 ratio, 48 h, normalized to β-actin, vs non-targeting siRNA control
Description: A total of 100 μg siRNA is injected in a final volume of 200 μL (0.5 mg/mL). […] Results (FIG. 3) indicate a significant decrease in target specific Cav-1 transcript levels in both lungs (76% knockdown) and livers (62% knockdown). For each group, n=5.

[3] = test system: squamous cell carcinoma tumors; test: Tumor growth inhibition and survival after intratumoral formulated VEGF siRNA; assay type: in vivo, mice
Description: as §1

VEGF protein = test: In vitro transfection of simVEGF siRNA complexes, supernatant mVEGF protein knockdown; assay type: cell-based, murine; details: SCCVII cells, 0.5 μg complexed simVEGF siRNA, 6 h + 40 h
Description: (§2) The transfection activity of siRNA and dioleoyl monoamine delivery reagent conjugate complexes is determined in vitro. Transfection complexes containing simVEGF siRNA construct are prepared by methods previously described in Example 9. SCCVII cells (0.5×10^5 cells/well) are seeded into 24-well tissue culture plates in 10% FBS. Each well is incubated for 6 hours with 0.5 μg of complexed siRNA in a total volume of 250 μL of DMEM. When the incubation period is concluded, 250 μL of DMEM supplemented with 20% FBS is added to the transfected cells and incubated further for another 40 hours. At the end of the incubation period, supernatant mVEGF protein determinations are made.
as §2, with “siRNA complexes with” for “siRNA and”, “monoamine (Example 3) or methyl-dioleoyl monoamine (Example 3A)” for “monoamine”, “delivery reagents” for “delivery reagent conjugate complexes”, “previously described.” for “previously described in Example 9.”, “are made as described above.” for “are made.”

[4] = one week after last of 6 intratumoral injections

## CCCCCCCC/C=C\CCCCCCCC(=O)NCCN(CCN)CCNC(=O)CCCCCCC/C=C\CCCCCCCC [dioleoyl monoamine, N,N′-dioleoyl tris(aminoethyl)amine]
[1]; with 0.1 M EDTA, after 84 hours
  loaded siRNA released from alginate gel: 100%
[1]; without EDTA (water), by 84 hours
  loaded siRNA released from alginate gel: < 20%
VEGF transcript
  decrease in VEGF transcript relative to the non-silencing control group: 32%
[2]
  Cav-1 transcript knockdown, livers: 62%
  Cav-1 transcript knockdown, lungs: 76%
[3]; VEGF siRNA intratumoral, 6 injections
  improvement in median survival relative to non-silencing control or untreated groups: 13%
[3]; [4]
  decrease in tumor volume relative to non-silencing siRNA: 31%
  decrease in tumor volume relative to untreated control animals: 57%
VEGF protein
  knockdown of VEGF protein: ~95%
